# Reference: patent US7524487B2, “Compositions and methods for modulating interleukin-10” (University of Maryland, priority 2005, dated 2009)
# Experiments:
# IL-10 promoter [1] = test: ChIP of histone H3 phosphorylation at the IL-10 promoter in stimulated BMMφ; type: cell-based, mice
# Procedure: BMMφ were stimulated with medium (open bars), LPS (solid bars) or E-IgG+LPS (striped bars) for 15 minutes (A), or the indicated times (B) and ChIP assays were carried out as described in Materials and Methods. Immunoprecipitations utilized antibodies specific to phospho-H3 (left panel) or acetyl-H3 (right panel). A. conventional RT-PCR and B. real time PCR were carried out using IL-10 promoter or IL-12p40 promoter specific primers. For real time PCR, samples were normalized to input DNA controls.
# Cells were pretreated with PD98059 (10 μM), SB203580 (1 μM) or medium for 30 min then stimulated with medium (open bar), IgG-OVA (dotted bar), LPS (solid bar), or both (striped bars) for 40 min. ChIP analysis was carried out using a phospho-H3 specific Ab. A. Conventional RT-PCR was carried out using IL-10 promoter or IL-12p40 promoter specific primers. B. Real time PCR analysis of samples obtained in A. Samples were normalized to input DNA controls.
# (§1) FIG. 22 is a graph showing Inhibition of histone modifications by blocking ERK. BMMφ were pre-treated with PD98059 (15 μM) (solid bars) or drug vehicle (open bars) for 1 hour and then stimulated with IC plus LPS (10 ng/mL). Cross-linked chromatin fragments were immunoprecipitated with antibody to phosphorylated histone H3 at Ser 10 or antibody to Sp1. The DNA was purified and analyzed for the presence of IL-10 promoter sequences corresponding to nucleosome −2 by QRT-PCR. The data were plotted graphically as the percentage change relative to drug vehicle (IC/LPS) at 30 min post-stimulation for histone H3 phosphorylation, and at 45 min post-stimulation for Sp1 recruitment. One representative from two independent experiments is presented.
# Chromatin immunoprecipitation (ChIP). ChIPs were carried out using the ChIP Assay kit following the manufacturer's protocol (Upstate USA, Inc., Lake Placid, N.Y.). Briefly, 1×10^6 BMMφ were plated overnight in 6-well plates. Cells were stimulated as described in Figure Legends then fixed for 10 min at 37° C. in paraformaldehyde (1% final concentration). […]
# IL-10 promoter [2] = test: ChIP of Sp1 and STAT3 binding to the IL-10 promoter in situ in stimulated BMMφ; type: cell-based, mice
# Procedure: BMMφ were stimulated with medium (open bar), E-IgG (dotted bar), LPS (solid bar), or LPS+E-IgG (striped bar) for 40 min. Some cells were pretreated with PD98059 (10 μM). Immunoprecipitations were carried out using either Sp1 or STAT3 specific Abs. A. Conventional RT-PCR was carried out using primers which amplify the putative Sp1 or STAT3 binding sites of the IL-10 promoter respectively. B. Real time PCR analysis of samples obtained in A. Samples were normalized to input DNA controls.
# as §1
# Chromatin immunoprecipitation (ChIP). ChIPs were carried out using the ChIP Assay kit following the manufacturer's protocol (Upstate USA, Inc., Lake Placid, N.Y.). […]
# [3] = system: bone marrow derived macrophages (BMMφ); test: Cytokine ELISA on supernatants of stimulated bone marrow derived macrophages (LPS ± E-IgG)
structure (smiles),measurement,setting,value
COc1cccc(-c2cc(=O)c3ccccc3o2)c1N [PD98059],"histone H3 Ser 10 phosphorylation at IL-10 promoter nucleosome −2 (ChIP, QRT-PCR)","IL-10 promoter [1]; BMMφ pre-treated with PD98059 15 μM for 1 hour, IC plus LPS 10 ng/mL, 30 min post-stimulation, relative to drug vehicle",substantial loss
same,histone H3 phosphorylation at the IL-10 promoter induced by immune complex (ChIP),"IL-10 promoter [1]; BMMφ pretreated 30 min with PD98059 10 μM or SB203580 1 μM, then IgG-OVA + LPS for 40 min",completely abrogated
same,"Sp1 recruitment to IL-10 promoter nucleosome −2 (ChIP, QRT-PCR)","IL-10 promoter [2]; BMMφ pre-treated with PD98059 15 μM for 1 hour, IC plus LPS 10 ng/mL, 45 min post-stimulation, relative to drug vehicle",dramatically reduced
same,Sp1 and STAT3 transcription factor binding to the IL-10 promoter in situ (ChIP),"IL-10 promoter [2]; BMMφ pretreated with PD98059 10 μM, LPS + E-IgG for 40 min",reversed
same,IL-10 secretion (ELISA),"[3]; BMMφ pretreated 30 min with PD98059 10 μM, SB203580 1 μM or JNK inhibitory peptide 1 μM, then LPS 10 ng/ml ± E-IgG, supernatants after 20 h",substantial inhibition
same,IL-12 (p40) production (ELISA),"[3]; BMMφ pretreated 30 min with inhibitor, then LPS 10 ng/ml ± E-IgG, 20 h",actually increased
same,superinduction (augmentation) of IL-10 production caused by immune complexes,"[3]; BMMφ, LPS 10 ng/ml + E-IgG versus LPS alone, 20 h, inhibitor pretreatment or 100 nM siRNA",appeared to prevent
